Data on ten substances can be found in article PMC4501720 (PLoS ONE, 2015).

Bounds are passed on as bounds.

The first experiment has as its system whole blood cells of group 3 pigs vaccinated with BCG-pAg85A. The experiment is classed as cell-based, pigs (Sus scrofa domestica).
Regarding “131–150: synthetic overlapping peptide of mature Ag85A, aa 131–150 (SALTLAIYHPQQFVYAGAMS; UniProt P9WQP3 174-193, looked up, fragment)”, the “IFN-γ levels, BCG / pAg85A animal number 1” value is listed as 11,114 pg/mL; the “IFN-γ levels, BCG / pAg85A animal number 2” value is reported as 1,754 pg/mL; the “IFN-γ levels, BCG / pAg85A animal number 3” value is 5,306 pg/mL; the “IFN-γ levels, BCG / pAg85A animal number 4” value is recorded as 868 pg/mL. In addition, the “IFN-γ levels, BCG / pAg85A animal number 5” value was 11,072 pg/mL; the “IFN-γ levels, BCG / pAg85A animal number 6” value was 4,687 pg/mL; the “group 3 animals recognizing the peptide (significant IFN-γ levels)” value was 6/6 and all six.

Regarding “201–220: synthetic overlapping peptide of mature Ag85A, aa 201–220 (IANNTRVWVYCGNGKPSDLG; UniProt P9WQP3 244-263, looked up, fragment)”, the “IFN-γ levels, BCG / pAg85A animal number 1” value turned out to be 21 pg/mL; the “IFN-γ levels, BCG / pAg85A animal number 2” value was under 5 pg/mL; the “IFN-γ levels, BCG / pAg85A animal number 3” value is 1,315 pg/mL; the “IFN-γ levels, BCG / pAg85A animal number 4” value is reported as under 5 pg/mL. Besides, the “IFN-γ levels, BCG / pAg85A animal number 5” value is on record as under 5 pg/mL and the “IFN-γ levels, BCG / pAg85A animal number 6” value is recorded as 197 pg/mL.

Turning to “181–200: synthetic overlapping peptide of mature Ag85A, aa 181–200 (GPKEDPAWQRNDPLLNVGKL; UniProt P9WQP3 224-243, looked up, fragment)”, the “IFN-γ levels, BCG / pAg85A animal number 1” value is 33 pg/mL; the “IFN-γ levels, BCG / pAg85A animal number 2” value is given as under 5 pg/mL; the “IFN-γ levels, BCG / pAg85A animal number 3” value is listed as 8 pg/mL; the “IFN-γ levels, BCG / pAg85A animal number 4” value was 17 pg/mL. Moreover, the “IFN-γ levels, BCG / pAg85A animal number 5” value was under 5 pg/mL and the “IFN-γ levels, BCG / pAg85A animal number 6” value is recorded as under 5 pg/mL.

In the case of “141–160: synthetic overlapping peptide of mature Ag85A, aa 141–160 (QQFVYAGAMSGLLDPSQAMG; UniProt P9WQP3 184-203, looked up, fragment)”, the “IFN-γ levels, BCG / pAg85A animal number 1” value was 9,718 pg/mL; the “IFN-γ levels, BCG / pAg85A animal number 2” value is recorded as 232 pg/mL; the “IFN-γ levels, BCG / pAg85A animal number 3” value is 1,330 pg/mL; the “IFN-γ levels, BCG / pAg85A animal number 4” value is 894 pg/mL. For the same substance, the “IFN-γ levels, BCG / pAg85A animal number 5” value is given as 3,006 pg/mL and the “IFN-γ levels, BCG / pAg85A animal number 6” value was 837 pg/mL.

With “111–130: synthetic overlapping peptide of mature Ag85A, aa 111–130 (ANRHVKPTGSAVVGLSMAAS; UniProt P9WQP3 154-173, looked up, fragment)”, the “IFN-γ levels, BCG / pAg85A animal number 1” value is 15,124 pg/mL; the “IFN-γ levels, BCG / pAg85A animal number 2” value is 2,879 pg/mL; the “IFN-γ levels, BCG / pAg85A animal number 3” value was 1,415 pg/mL; the “IFN-γ levels, BCG / pAg85A animal number 4” value is 33 pg/mL. Also, the “IFN-γ levels, BCG / pAg85A animal number 5” value is reported as 961 pg/mL and the “IFN-γ levels, BCG / pAg85A animal number 6” value was under 5 pg/mL.

For “81–100: synthetic overlapping peptide of mature Ag85A, aa 81–100 (DWYQPACGKAGCQTYKWETF; UniProt P9WQP3 124-143, looked up, fragment)”, the “IFN-γ levels, BCG / pAg85A animal number 1” value is recorded as 1,900 pg/mL; the “IFN-γ levels, BCG / pAg85A animal number 2” value is recorded as 56 pg/mL; the “IFN-γ levels, BCG / pAg85A animal number 3” value is on record as 2,968 pg/mL; the “IFN-γ levels, BCG / pAg85A animal number 4” value turned out to be 170 pg/mL. Moreover, the “IFN-γ levels, BCG / pAg85A animal number 5” value was 1,547 pg/mL and the “IFN-γ levels, BCG / pAg85A animal number 6” value is on record as under 5 pg/mL.

Turning to “261–280: synthetic overlapping peptide of mature Ag85A, aa 261–280 (THSWEYWGAQLNAMKPDLQR; UniProt P9WQP3 304-323, looked up, fragment)”, the “IFN-γ levels, BCG / pAg85A animal number 1” value was determined as 31 pg/mL; the “IFN-γ levels, BCG / pAg85A animal number 2” value is under 5 pg/mL; the “IFN-γ levels, BCG / pAg85A animal number 3” value is recorded as under 5 pg/mL; the “IFN-γ levels, BCG / pAg85A animal number 4” value stood at 157 pg/mL. Also, the “IFN-γ levels, BCG / pAg85A animal number 5” value was 728 pg/mL and the “IFN-γ levels, BCG / pAg85A animal number 6” value is 1,240 pg/mL.

On to “231–250: synthetic overlapping peptide of mature Ag85A, aa 231–250 (GFVRTSNIKFQDAYNAGGGH; UniProt P9WQP3 274-293, looked up, fragment)”, for which the “IFN-γ levels, BCG / pAg85A animal number 1” value is reported as 11,639 pg/mL; the “IFN-γ levels, BCG / pAg85A animal number 2” value is 13,693 pg/mL; the “IFN-γ levels, BCG / pAg85A animal number 3” value turned out to be 423 pg/mL; the “IFN-γ levels, BCG / pAg85A animal number 4” value is given as under 5 pg/mL. The “IFN-γ levels, BCG / pAg85A animal number 5” value is 1,018 pg/mL and the “IFN-γ levels, BCG / pAg85A animal number 6” value was 665 pg/mL.

Regarding “35–53: synthetic overlapping peptide of mature Ag85A, aa 35–53 (ALYLLDGLRAQDDFSGWDI; UniProt P9WQP3 78-96, looked up, fragment)”, the “IFN-γ levels, BCG / pAg85A animal number 1” value is reported as 4,594 pg/mL; the “IFN-γ levels, BCG / pAg85A animal number 2” value was found to be 438 pg/mL; the “IFN-γ levels, BCG / pAg85A animal number 3” value is recorded as 74 pg/mL; the “IFN-γ levels, BCG / pAg85A animal number 4” value was under 5 pg/mL. The “IFN-γ levels, BCG / pAg85A animal number 5” value is listed as 2,105 pg/mL and the “IFN-γ levels, BCG / pAg85A animal number 6” value is reported as under 5 pg/mL.

With “91–108: 18-mer peptide spanning the sequence of Ag85B aa 91–108, used instead of Ag85A 91–110 (GCQTYKWETFLTSELPQW; UniProt P9WQP1 131-148, looked up, fragment)”, the “IFN-γ levels, BCG / pAg85A animal number 1” value is listed as under 5 pg/mL; the “IFN-γ levels, BCG / pAg85A animal number 2” value is on record as 2,332 pg/mL; the “IFN-γ levels, BCG / pAg85A animal number 3” value is listed as 2,377 pg/mL; the “IFN-γ levels, BCG / pAg85A animal number 4” value is reported as 308 pg/mL. Further, the “IFN-γ levels, BCG / pAg85A animal number 5” value is given as 748 pg/mL and the “IFN-γ levels, BCG / pAg85A animal number 6” value is listed as under 5 pg/mL.

A further experiment shares this test system. The experiment is classed as cell-based, pigs (Sus scrofa domestica). The source holds these as a separate data set.
Turning to “131–150: synthetic overlapping peptide of mature Ag85A, aa 131–150 (SALTLAIYHPQQFVYAGAMS; UniProt P9WQP3 174-193, looked up, fragment)”, the “animals with positive proliferative response to peptide” value was 5/6.
